The record followed here is patent US20210277020A1, “HETEROCYCLIC COMPOUNDS AS MONOACYLGLYCEROL LIPASE INHIBITORS” (Hoffmann-La Roche Inc., priority 2018, published 2021).

The assay deals with T1, MAGL (Homo sapiens, UniProt Q99685).
T1 sequence (Q99685 1-303): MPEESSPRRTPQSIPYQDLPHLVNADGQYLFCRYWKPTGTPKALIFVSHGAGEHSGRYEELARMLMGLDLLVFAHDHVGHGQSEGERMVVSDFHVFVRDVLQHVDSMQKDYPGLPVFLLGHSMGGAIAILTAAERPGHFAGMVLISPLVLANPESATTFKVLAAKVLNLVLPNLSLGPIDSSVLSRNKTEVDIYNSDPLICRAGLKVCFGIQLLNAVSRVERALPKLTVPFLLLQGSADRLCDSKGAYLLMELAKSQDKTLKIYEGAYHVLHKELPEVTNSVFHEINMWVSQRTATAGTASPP
Put plainly: 2-AG assay: MAGL inhibition followed by hydrolysis of 2-arachidonoylglycerol to arachidonic acid, mass spectrometry. Type of assay: biochemical. Particulars: measured in 2-AG assay (footnote [a]); substrate 2-arachidonoylglycerol 8 μM, 30 min at RT. The source says:
Alternatively, compounds were profiled for MAGL inhibitory activity by determining the enzymatic activity by following the hydrolysis of the natural substrate, 2-arachidonoylglycerol, resulting in arachidonic acid, which can be followed by mass spectrometry. This assay is hereinafter abbreviated “2-AG assay”.
Detection by mass spectrometry in the present 2-AG assay has the advantage over known optical assays that the natural enzyme substrate, 2-arachidonoylglycerol, can be used instead of structurally unrelated compounds needed for optical readouts (such as 4-NPA). It thereby delivers more relevant data for activity determination, reduces false positives and generally adds to data quality. In addition, this assay reduces the analysis time from about 10 minutes per sample with standard methods to under 10 seconds per sample. This allows for using the present 2-AG assay in a method for high throughput screening of compounds for their MAGL inhibitory activity.
The 2-AG assay was carried out in 384 well assay plates (PP, Greiner Cat #784201) in a total volume of 20 μL. Compound dilutions were made in 100% DMSO (VWR Chemicals 23500.297) in a polypropylene plate in 3-fold dilution steps to give a final concentration range in the assay from 12.5 μM to […]. 0.25 μL compound dilutions (100% DMSO) were added to 9 μL MAGL in assay buffer (50 mM TRIS (GIBCO, 15567-027), 1 mM EDTA (Fluka, 03690-100 mL), 0.01% (v/v) Tween. After shaking, the plate was incubated for 15 min at RT. To start the reaction, 10 μL 2-arachidonoylglycerol in assay buffer was added. The final concentrations in the assay was […] and 8 μM 2-arachidonoylglyerol. After shaking and 30 min incubation at RT, the reaction was quenched by the addition of 40 μL of acetonitrile containing 4 μM of d8-arachidonic acid. The amount of arachidonic acid was traced by an online SPE system (Agilent Rapidfire) coupled to a triple quadrupole mass spectrometer (Agilent 6460). A C18 SPE cartridge (G9205A) was used in an acetonitrile/water liquid setup. The mass spectrometer was operated in negative electrospray mode following the mass transitions 303.1→259.1 for arachidonic acid and 311.1→267.0 for d8-arachidonic acid. The activity of the compounds was calculated based on the ratio of intensities [arachidonic acid/d8-arachidonic acid].
In a preferred embodiment, the method for determining the MAGL inhibitory activity of a test compound according to the invention, comprises: • (i) providing a solution of a test compound; • (ii) adding the solution of step (i) to a solution of MAGL; • (iii) shaking the mixture obtained from step (ii); • (iv) incubating the mixture obtained from step (iii); • (v) adding a solution of 2-arachidonoylglycerol; • (vi) incubating the mixture obtained from step (v); • (vii) adding a solution of d8-arachidonic acid; and • (viii) determining the ratio of intensities arachidonic acid/d8-arachidonic acid using a mass spectrometer.
`O=C1CO[C@H]2CCN(C(=O)N3CCC(C#Cc4ccccc4Cl)CC3)C[C@H]2N1` [Example 125, (+)-(4aR,8aS)-6-[4-[2-(2-Chlorophenyl)ethynyl]piperidine-1-carbonyl]-4,4a,5,7,8,8a-hexahydropyrido[4,3-b][1,4]oxazin-3-one] came in with an IC50 of 30 nM.

`O=C1CO[C@H]2CCN(C(=O)N3CC(C#Cc4cccc(Cl)c4)C3)C[C@H]2N1` [Example 165, (4aR,8aS)-6-[3-[2-(3-Chlorophenyl)ethynyl]azetidine-1-carbonyl]-4,4a,5,7,8,8a-hexahydropyrido[4,3-b][1,4]oxazin-3-one] returned a 50% inhibitory concentration (IC50) of 8 nM.

Compound `O=C1CO[C@H]2CCN(C(=O)N3CC(NC(=O)c4ccc(F)cc4Cl)C3)C[C@H]2N1` [Example 78, 2-chloro-4-fluoro-N-(1-((4aR,8aS)-3-oxooctahydro-2H-pyrido[4,3-b][1,4]oxazine-6-carbonyl)azetidin-3-yl)benzamide] displayed an IC50 of 4600 nM.

Turning to `O=C1CO[C@H]2CCN(C(=O)N3CC(CNC(c4ccc(C(F)(F)F)cc4)C(F)(F)F)C3)C[C@H]2N1` (stereo partly drawn) [Example 41, (4aR,8aS)-6-[3-[[[2,2,2-Trifluoro-1-[4-(trifluoromethyl)phenyl]ethyl]amino]methyl]azetidine-1-carbonyl]hexahydro-2H-pyrido[4,3-b][1,4]oxazin-3(4H)-one], the IC50 was 24 nM.

`O=C1CO[C@H]2CCN(C(=O)N3CC(CNC(c4ccc(Cl)cc4Cl)C(F)(F)F)C3)C[C@H]2N1` (stereo partly drawn) [Example 69, (4aR,8aS)-6-(3-(((1-(2,4-Dichlorophenyl)-2,2,2-trifluoroethyl)amino)methyl)azetidine-1-carbonyl)hexahydro-2H-pyrido[4,3-b][1,4]oxazin-3(4H)-one] came in with an IC50 of 8 nM.

Take `O=C1CO[C@H]2CCN(C(=O)N3CC(C#Cc4ccccc4Br)C3)C[C@H]2N1` [Example 171, (4aR,8aS)-6-[3-[2-(2-Bromophenyl)ethynyl]azetidine-1-carbonyl]-4,4a,5,7,8,8a-hexahydropyrido[4,3-b][1,4]oxazin-3-one]: inhibition was half-maximal at 7 nM (IC50).

In turn, `O=C1CO[C@H]2CCN(C(=O)N3CC(C#Cc4cccc(F)c4Cl)C3)C[C@H]2N1` [Example 172, (4aR,8aS)-6-(3-((2-Chloro-3fluorophenyl)ethynyl)azetidine-1-carbonyl)hexahydro-2H-pyrido[4,3-b][1,4]oxazin-3(4H)-one] registered a 50% inhibitory concentration (IC50) of 16 nM.

In turn, `O=C1CO[C@H]2CCN(C(=O)N3CC(C#Cc4ccc(C5(O)CC5)cc4)C3)C[C@H]2N1` [Example 180, (4aR,8aS)-6-[3-[2-[4-(1-Hydroxycyclopropyl)phenyl]ethynyl]azetidine-1-carbonyl]-4,4a,5,7,8,8a-hexahydropyrido[4,3-b][1,4]oxazin-3-one] registered an IC50 of 38 nM.

`O=C1CO[C@H]2CCN(C(=O)N3CC(C#Cc4ccc(C5CC5)cc4)C3)C[C@H]2N1` [Example 179, (4aR,8aS)-6-[3-[2-(4-Cyclopropylphenyl)ethynyl]azetidine-1-carbonyl]-4,4a,5,7,8,8a-hexahydropyrido[4,3-b][1,4]oxazin-3-one] returned an IC50 of 6 nM.

`O=C1CO[C@H]2CCN(C(=O)N3CCC(C#Cc4cnccc4Cl)CC3)C[C@H]2N1` [Example 126, (+)-(4aR,8aS)-6-[4-[2-(4-Chloropyridin-3-yl)ethynyl]piperidine-1-carbonyl]-4,4a,5,7,8,8a-hexahydropyrido[4,3-b][1,4]oxazin-3-one] came in with an IC50 of 306 nM.

Consider `COc1cccc(C#CC2CN(C(=O)N3CC[C@@H]4OCC(=O)N[C@@H]4C3)C2)c1C` [Example 183, (4aR,8aS)-6-[3-[2-(3-Methoxy-2-methylphenyl)ethynyl]azetidine-1-carbonyl]-4,4a,5,7,8,8a-hexahydropyrido[4,3-b][1,4]oxazin-3-one], for which the IC50 is 11 nM.

Regarding `CC1(C#Cc2ccc(Cl)cc2Cl)CCN(C(=O)N2CC[C@@H]3OCC(=O)N[C@@H]3C2)CC1` [Example 196, (4aR,8aS)-6-(4-((2,4-Dichlorophenyl)ethynyl)-4-methylpiperidine-1-carbonyl)hexahydro-2H-pyrido[4,3-b][1,4]oxazin-3(4H)-one], the half-inhibitory concentration (IC50) was found to be 92 nM.

As to `O=C1CO[C@H]2CCN(C(=O)N3CC(C#Cc4c(F)cccc4Cl)C3)C[C@H]2N1` [Example 161, (4aR,8aS)-6-(3-((2-Chloro-6-fluorophenyl)ethynyl)azetidine-1-carbonyl)hexahydro-2H-pyrido[4,3-b][1,4]oxazin-3(4H)-one], the IC50 came to 5 nM.

As for `CN(C(=O)Cc1cccc(C(F)(F)F)c1Cl)C1CCN(C(=O)N2CC[C@@H]3OCC(=O)N[C@@H]3C2)CC1` [Example 83, N-[1-[(4aR,8aS)-3-oxo-4,4a,5,7,8,8a-hexahydropyrido[4,3-b][1,4]oxazine-6-carbonyl]piperidin-4-yl]-2-[2-chloro-3-(trifluoromethyl)phenyl]-N-methylacetamide], the half-maximal inhibitory concentration (IC50) came to 608 nM.

As to `CN(c1ccc(C(F)(F)F)cc1)C1CN(C(=O)N2CC[C@@H]3OCC(=O)N[C@@H]3C2)C1` (racemic) [Example 137, rac-(4aR,8aS)-6-[3-[N-methyl-4-(trifluoromethyl)anilino]azetidine-1-carbonyl]-4,4a,5,7,8,8a-hexahydropyrido[4,3-b][1,4]oxazin-3-one], the half-inhibitory concentration (IC50) worked out at 1100 nM.

Compound `CS(=O)(=O)c1ccc(C#CC2CN(C(=O)N3CC[C@@H]4OCC(=O)N[C@@H]4C3)C2)cc1` [Example 186, (4aR,8aS)-6-[3-[2-(4-Methylsulfonylphenyl)ethynyl]azetidine-1-carbonyl]-4,4a,5,7,8,8a-hexahydropyrido[4,3-b][1,4]oxazin-3-one] gave an IC50 of 753 nM.

Compound `Cc1cccc(Cl)c1C#CC1CN(C(=O)N2CC[C@@H]3OCC(=O)N[C@@H]3C2)C1` [Example 184, (4aR,8aS)-6-[3-[2-(2-Chloro-6-methylphenyl)ethynyl]azetidine-1-carbonyl]-4,4a,5,7,8,8a-hexahydropyrido[4,3-b][1,4]oxazin-3-one] gave a half-maximal inhibitory concentration (IC50) of 6 nM.

In turn, `O=C1CO[C@H]2CCN(C(=O)N3CCC(C#Cc4ccc(F)cc4Cl)CC3)C[C@H]2N1` [Example 128, (+)-(4aR,8aS)-6-[4-[2-(2-Chloro-4-fluorophenyl)ethynyl]piperidine-1-carbonyl]-4,4a,5,7,8,8a-hexahydropyrido[4,3-b][1,4]oxazin-3-one] returned an IC50 of 23 nM.

On to `O=C1CO[C@H]2CCN(C(=O)N3CC(CNC(c4ccccc4Cl)C(F)(F)F)C3)C[C@H]2N1` (stereo partly drawn) [Example 70, (4aR,8aS)-6-(3-(((1-(2-Chlorophenyl)-2,2,2-trifluoroethyl)amino)methyl)azetidine-1-carbonyl)hexahydro-2H-pyrido[4,3-b][1,4]oxazin-3(4H)-one], for which it took 12 nM to reach half-maximal inhibition (IC50).

The compound `O=C1CO[C@H]2CCN(C(=O)N3CCC(O)(C#Cc4ccccc4Cl)CC3)C[C@H]2N1` [Example 132, (+)-(4aR,8aS)-6-[4-[2-(2-Chlorophenyl)ethynyl]-4-hydroxypiperidine-1-carbonyl]-4,4a,5,7,8,8a-hexahydropyrido[4,3-b][1,4]oxazin-3-one] had a 50% inhibitory concentration (IC50) of 889 nM.

Take `O=C1CO[C@H]2CCN(C(=O)N3CCC(C(NCc4cccc(C(F)(F)F)c4)C(F)(F)F)CC3)C[C@H]2N1` (stereo partly drawn) [Example 107, (4aR,8aS)-6-[4-[2,2,2-Trifluoro-1-[[3-(trifluoromethyl)phenyl]methylamino]ethyl]piperidine-1-carbonyl]-4,4a,5,7,8,8a-hexahydropyrido[4,3-b][1,4]oxazin-3-one]: inhibition was half-maximal at 55 nM (IC50).

As to `Cc1cccc(C)c1C#CC1CN(C(=O)N2CC[C@@H]3OCC(=O)N[C@@H]3C2)C1` [Example 169, (4aR,8aS)-6-[3-[2-(2,6-Dimethylphenyl)ethynyl]azetidine-1-carbonyl]-4,4a,5,7,8,8a-hexahydropyrido[4,3-b][1,4]oxazin-3-one], the IC50 was 4 nM.
